Assay results taken from patent publication US6794402B2, “Bicyclic cyclohexylamines and their use as NMDA receptor antagonists” (Warner-Lambert Company, priority 2000, dated 2004).

Key:
[1] = target: NR1A/NR2B NMDA receptor (Rattus norvegicus, UniProt P35439+Q00960); assay: Electrophysiological assay at NMDA receptor subunits expressed in Xenopus oocytes; type: cell-based; conditions: cloned rat NR1A/NR2B in Xenopus oocytes, two-electrode voltage clamp, glutamate 100 μM + glycine 1-100 μM; read-out: NR1A/NR2B Oocyte IC50
From the text: Preparation of RNA. cDNA clones encoding the NR1A, NR2A, NR2B, and NR2C rat NMDA receptor subtypes were used (see, Moriyoshi, supra., 1991; Kutsuwada et al., supra., 1992; Monyer et al., supra, 1992; Ikeda et al., FEBS Lett., 1992;313:34-38; Ishii et al., J. Biol. Chem., 1993;268:2836-2843 for details of these clones or their mouse homologs). The clones were transformed into appropriate host bacteria and plasmid preparations were made with conventional DNA purification techniques. A sample of each clone linearized by restriction enzyme digestion […] was synthesized with T3 RNA polymerase. The cRNA was diluted to 400 ng/μL and stored in 1-μL aliquots at −80° C. until injection.
The Xenopus oocyte expression system. Mature female Xenopus laevis were anaesthetized (20-40 minutes) using 0.15% 3-aminobenzoic acid ethyl ester (MS-222), and 2 to 4 ovarian lobes were surgically removed. Oocytes at developmental stages IV-VI (Dumont J. N., J. Morphol., 1972;136:153-180) were dissected from the ovary still surrounded by enveloping ovarian tissues. Follicle-enclosed oocytes were microinjected with 1:1 mixtures of NR1A:NR2A, 2B or 2C; injecting 1 to 10 ng of RNA encoding each receptor subunit. NR1A encoding RNA was injected alone at ˜20 ng. Oocytes were stored in Barth's medium containing (in mM): NaCl, 88; KCl, 1; CaCl2, 0.41; Ca (NO3)2, 0.33; MgSO4, 0.82; NaHCO3, 2.4; HEPES 5; pH 7.4, with 0.11 mg/mL gentamicin sulphate. While oocytes were still surrounded by enveloping ovarian tissues, the Barth's medium was supplemented with 0.1% bovine serum. Oocytes were defolliculated 1 to 2 days following injections by treatment with collagenase (0.5 mg/mL Sigma Type I for 0.5-1 hr)-(Miledi and Woodward, J. Phsyiol., (Lond) 1989;416:601-621) and subsequently stored in serum-free medium.
Electrical recordings were made using a conventional two-electrode voltage clamp (Dagan TEV-200) over periods ranging between 3 to 21 days following injection (Woodward et al., Mol. Pharmacol., 1992;41:89-103). Oocytes were placed in a 0.1-mL recording chamber continuously perfused (5 mL-15 mL min^−1) with frog Ringer's solution containing (in mM): NaCl, 115; KCL, 2; BaCl2, 1.8; HEPES, 5; and pH 7.4. Drugs were applied by bath perfusion. Using oocytes expressing different subunit combinations of NMDA receptor, NMDA currents were activated by co-application of glutamate (100 μM) and glycine (1-100 μM). Inhibitory potency of the novel antagonists was assessed on responses elicited by fixed concentrations of glutamate and glycine, by measuring reductions in current induced by progressively increasing concentrations of antagonist.
Concentration-inhibition curves were fit with Equation 1.
I/Icontrol=1/(1+([antagonist]/10−^pIC50)^n) Eq. 1
In which Icontrol is the current evoked by agonists alone, pIC50=−log IC50, IC50 is the concentration of antagonist that produced half maximal inhibition, and n is the slope factor (De Lean et al., Am. J. Physiol., 1978;235:E97-102). For incomplete curves, analysis by fitting was unreliable and IC50 values were calculated by simple regression over linear portions of the curves (Origin: Microcal Software).

[2] = target: T1, [3H]ifenprodil binding site, rat forebrain membranes (Rattus norvegicus, UniProt P35439+Q00960); assay: [3H]Ifenprodil binding assay; conditions: 4 nM [3H]-ifenprodil, 2 hours at room temperature
T1 construct: membrane fraction was prepared from frozen adult rat forebrains; tissue Zivic-Miller Laboratories, Inc; host or cells: adult rat forebrain, washed buffy coat membrane fraction
Method in brief: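 Washed rat forebrain buffy coat membranes (100-200 μg protein) were incubated with 4 nM [3H]ifenprodil in 20 mM HEPES-KOH pH 7.4 for 2 hours at room temperature, in triplicate, then filtered on PEI-soaked GF/B filters. Nonspecific binding was set with 1 mM ifenprodil. IC50 came from a one- or two-site competition fit.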

[3] = tested on: 6-Hydroxydopamine-lesioned rats; assay: 6-OHDA lesioned rat assay; type: in vivo; conditions: for 6-OHDA MED: minimum effective dose to potentiate contraversive rotation induced by L-DOPA methyl ester 10 mg/kg SC, 6-hour period; for 6-OHDA active/inactive at the given dose: statistically significant increase in contraversive rotations vs L-DOPA only
Procedure: 6-Hydroxydopamine-lesioned rats were used (see Ungerstedt U., Arbuthnott G. W., Quantitative recording of rotational behavior in rats after 6-hydroxy-dopamine lesions of the nigrostraiatal dopamine system. Brain Res., 1971;24(3):485-93). Adult male Sprague-Dawley rats were anesthetized with chloral hydrate and unilateral lesions of the nigrostriatal dopamine system were accomplished by infusion of 8 μg of 6-hydroxydopamine HBr (6-OHDA) into the right medial forebrain bundle. Rats were pretreated 30 minutes before surgery with desipramine HCl 25 mg/kg intraperitoneally (IP) to protect noradrenegic neurons, and pargyline 25 mg/kg IP to potentiate the effects of 6-OHDA. A minimum of 3 weeks after surgery, the rotational behavior induced by apomorphine HCL 50 μg/kg subcutaneously (SC) was assessed.
Rotational behavior was measured using an automatic rotometer system (Rotorat Rotational Activity System, MED Associates, Georgia, Vt.). Anti-parkinsonian activity was assessed as the ability of the compound to potentiate the contraversive rotation induced by L-DOPA methyl ester, 10 mg/kg SC, over a 6-hour period. Experiments were conducted using a crossover paradigm where each rat received either a vehicle plus L-DOPA, or the test compound plus L-DOPA, in randomized order. Rats were tested at 7-day intervals. In experiments in which the compound was tested orally, rats were food deprived for 16 hours. Statistical analysis between treatment groups were performed using a paired t-test. The results were reported in Table 1 as the minimum effective dose (MED) of compound (mg/kg) required to produce a statistically-significant increase in total contraversive rotations compared to rats receiving L-DOPA only.

T1 sequence (Q00960 27-1482, other chains not shown): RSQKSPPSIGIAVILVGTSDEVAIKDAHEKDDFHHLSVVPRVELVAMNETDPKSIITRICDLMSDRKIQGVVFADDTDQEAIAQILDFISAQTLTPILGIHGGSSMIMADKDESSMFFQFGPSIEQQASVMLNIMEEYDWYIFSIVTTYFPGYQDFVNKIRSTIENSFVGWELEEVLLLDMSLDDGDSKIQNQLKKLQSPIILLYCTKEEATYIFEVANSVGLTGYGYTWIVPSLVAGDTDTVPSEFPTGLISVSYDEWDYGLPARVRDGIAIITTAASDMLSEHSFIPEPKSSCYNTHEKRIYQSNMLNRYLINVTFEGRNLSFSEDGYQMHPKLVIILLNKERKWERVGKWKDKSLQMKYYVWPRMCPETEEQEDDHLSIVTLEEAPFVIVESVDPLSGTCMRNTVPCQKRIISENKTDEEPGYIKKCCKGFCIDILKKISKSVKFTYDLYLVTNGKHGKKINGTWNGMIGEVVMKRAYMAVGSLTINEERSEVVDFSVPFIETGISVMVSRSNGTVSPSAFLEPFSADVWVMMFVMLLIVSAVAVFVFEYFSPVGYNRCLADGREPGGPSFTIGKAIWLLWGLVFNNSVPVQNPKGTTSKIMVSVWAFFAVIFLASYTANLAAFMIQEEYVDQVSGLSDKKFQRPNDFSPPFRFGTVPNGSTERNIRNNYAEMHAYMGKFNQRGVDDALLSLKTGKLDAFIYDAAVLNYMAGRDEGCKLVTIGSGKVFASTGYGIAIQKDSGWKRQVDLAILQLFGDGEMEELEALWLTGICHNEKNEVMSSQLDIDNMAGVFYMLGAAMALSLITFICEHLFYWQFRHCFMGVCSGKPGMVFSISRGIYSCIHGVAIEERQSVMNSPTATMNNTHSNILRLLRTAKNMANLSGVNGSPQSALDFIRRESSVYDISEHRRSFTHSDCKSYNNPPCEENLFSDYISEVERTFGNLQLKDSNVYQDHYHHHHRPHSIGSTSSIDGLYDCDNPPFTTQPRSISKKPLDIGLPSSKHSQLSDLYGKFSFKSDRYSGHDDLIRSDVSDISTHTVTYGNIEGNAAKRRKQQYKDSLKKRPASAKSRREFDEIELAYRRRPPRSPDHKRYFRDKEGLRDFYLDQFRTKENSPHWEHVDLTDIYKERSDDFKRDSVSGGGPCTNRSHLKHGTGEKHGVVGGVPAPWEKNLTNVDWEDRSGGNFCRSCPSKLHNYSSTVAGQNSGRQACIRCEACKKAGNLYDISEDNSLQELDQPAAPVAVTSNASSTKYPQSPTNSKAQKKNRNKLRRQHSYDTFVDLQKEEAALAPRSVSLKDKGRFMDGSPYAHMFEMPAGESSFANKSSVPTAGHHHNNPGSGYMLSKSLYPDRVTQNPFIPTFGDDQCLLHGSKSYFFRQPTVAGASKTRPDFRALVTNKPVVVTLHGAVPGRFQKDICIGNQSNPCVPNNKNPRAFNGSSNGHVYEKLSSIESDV
Sequence of NR1A/NR2B NMDA receptor (Q00960 27-1482, other chains not shown): as above

Structure (SMILES)	melting point [°C]	IC50 [1] [nM]	IC50 [2] [nM]	6-OHDA MED [3] [mg/kg]	6-OHDA active/inactive at the given dose [3]
O=c1[nH]c2ccc([C@H]3CC[C@H](NCCCc4ccccc4)CC3)cc2o1 [Example 1, 6-[trans-4-(3-Phenylpropylamino)cyclohexyl]-3H-benzoxazol-2-one]	166 to 170	30	4	30	active
O=c1[nH]c2ccc([C@H]3CC[C@H](NCCOc4ccc(F)cc4)CC3)cc2o1 [Example 2, 6-{trans-4-[2-(4-Fluorophenoxy)ethylamino]cyclohexyl}-3H-benzoxazol-2-one]	172 to 176	100	40	10.0	active
O=c1[nH]c2ccc([C@H]3CC[C@H](NCCOc4ccccc4)CC3)cc2o1 [Example 3, 6-[trans-4-(2-Phenoxyethylamino)cyclohexyl]-3H-benzoxazol-2-one]	159 to 162	100	–	10.0	active
CN(CCCc1ccc(F)cc1)[C@H]1CC[C@H](c2ccc3[nH]c(=O)oc3c2)CC1 [Example 18, 6-(trans-4-{[3-(4-Fluorophenyl)propyl]methylaamino}cyclohexyl)-3H-benzoxazol-2-one]	62 to 65	65	9	10	active
